Measurements as given in patent US7094796B2, “Coupling product between tryptamine and an alpha-amino acid, process for its preparation as well as its application in the neurocosmetic field” (Exsymol S.A.M., priority 2002, dated 2006).

Legend:
[1] = tested on: PC 12 cells; experiment: Test 1: cytoprotecting effect on PC 12 cells submitted to a cytotoxic UV-B stress (LDH activity in culture medium); assay type: cell-based, murine; settings: UV-B 285 nm, 500 mJ/cm^2, average of six measures
From the text: (§1) The cell model chosen by the applicant in all its in vitro experimentations was a pheochromocytomal cell line with murine origin, called “PC 12” and commonly accepted for neurobiological and neurochemical studies on nervous cells (Greene L. A. and al., Proc. Natl. Acad. Sci. USA (1976), vol.73, pp.2424–2428), in particular on peripheral neurones which innervate skin (Keilbaugh S. A., Biochem. Pharm. (1997), vol.53, pp.1485–1492).
(§2) The PC 12 line was used after differentiation according to a method described in the literature (Greene L. A. et al. in Culturing Nerve Cells (1991), MIT Press, Cambridge, Mass., pp.207–225).
Test 1: cytoprotecting effect of the alpha-L-glutamyltryptamine, L-methionyltryptamine and L-tryptophantryptamine on PC 12 cells submitted to a UV-B stress. Comparison with a reference antioxidant. A cytotoxic UV-B stress is applied on the nervous cell model (285 nm±5; 500 mJ/cm^2), in the absence then in the presence of active ingredient, successively the alpha-L-glutamyltryptamine (Glu-Tryp), L-methionyltryptamine (Met-Tryp) and L-tryptophantryptamine (Trp-Tryp).
The cell death is then evaluated by the measure of lactico-dehydrogenase activity (LDH) in the culture medium. This activity is proportional to the cell lysis which follows the cell death.
The results are expressed in % of protection and are given by the ratio of LDH activity according to the following equation: […]
The results are compared to the ones obtained with a reference antioxidant which is vitamin E (vit.E).
Validity of the test is checked by the measure of LDH activity in the culture medium of non stressed cells (negative check). Values listed in the tables hereafter are average values obtained from six measures.

[2] = tested on: PC 12 cells; experiment: Test 2: slowdown of the neurodegeneration process of PC 12 submitted to a deprivation of serum (LDH release); assay type: cell-based, murine; settings: serum deprivation of nine days, average of six measures
From the text: as §1, §2
Test 2: anti-aging effect of the alpha-L-glutamyltryptamine, L-methionyltryptamine and L-tryptophantryptamine with the slowdown of the neurodegeneration process of PC 12 submitted to a deprivation of serum.
A deprivation of serum is applied to PC 12 cells in order to imitate the aging effects. The neurodegeneration process is followed, in the absence then in the presence of active ingredient, successively the alpha-L-glutamyltryptamine (Glu-Tryp), L-methionyltryptamine (Met-Tryp) and L-tryptophantryptamine (Trp-Tryp), by a kinetic measure of the release in the culture medium of lactico-dehydrogenase enzyme (LDH).
The results are expressed in relative survival rate given by the LDH activity ratio according to the following equation: […]
The values listed in the tables hereafter are average values obtained from six measures after a serum deprivation of nine days.

[3] = tested on: PC 12 cells; experiment: Test 3: anti-inflammatory effect on PC 12 cells submitted to a UV-B pro-inflammatory stress (IL-6 production); assay type: cell-based, murine; settings: UV-B 285 nm, 150 mJ/cm^2, non treated irradiated control 400, non irradiated control 0
From the text: as §1, §2
Test 3: anti-inflammatory effect of the alpha-L-glutamyltryptamine, L-methionyltryptamine and L-tryptophantryptamine on PC 12 cells submitted to a pro-inflammatory stress. Comparison with two controls (PC 12): the first one is non stressed, the second one is stressed but non treated
A UV-B pro-inflammatory stress is applied on PC 12 cells (285 nm±5; 150 mJ/cm^2), in the absence then in the presence of active ingredient, successively the alpha-L-glutamyltryptamine (Glu-Tryp), L-methionyltryptamine (Met-Tryp) and L-tryptophantryptamine (Trp-Tryp).
The neurogenic inflammatory response is evaluated by the measure of the rate of pro-inflammatory interleukine-6 (IL-6) which are produced by the PC 12 cells.

[4] = tested on: immune monocyte cells, the THP-1 line; experiment: Test 4: stimulation of the neuro immuno-cutaneous system (IL-1β produced by THP-1 monocytes given supernatants of treated PC 12 cells); assay type: cell-based; settings: supernatant added to THP-1, non treated supernatant control 40
Experimental: Test 4: stimulation of the neuro immuno-cutaneous system with the alpha-L-glutamyltryptamine, L-methionyltryptamine or L-tryptophantryptamine.
PC 12 cells are differentiated according to a special protocol to avoid artefacts. After a brief deprivation of growth and differentiation factors, PC 12 are incubated in different concentrations of pseudodipeptides, successively the alpha-L-glutamyltryptamine (Glu-Tryp), L-methionyltryptamine (Met-Tryp) and L-tryptophantryptamine (Trp-Tryp).
After a five days-incubation, the cellular supernatants containing neuromediators and miscellaneous secretions are sampled then introduced in the culture of immune monocyte cells, the THP-1 line.
The effect on the neuro immuno-cutaneous system is observed by measuring the rate of IL-1β interleukines produced by the monocyte cells in response to the addition of supernatants coming from the culture of PC 12 cells.
The results are compared to two controls: the first one with immune cells without supernatant, the second one containing immune cells with supernatant but non treated.

[5] = 0.05 mM on PC 12, five days-incubation
[6] = 0.1 mM on PC 12, five days-incubation

For `CSCC[C@H](N)C(=O)NCCc1c[nH]c2ccccc12` [Met-Tryp, L-methionyltryptamine], the “% of protection” value ([1]; 0.05 mM) was 20%, the “% of protection” value ([1]; 0.1 mM) was 32% and the “% of protection” value ([1]; 0.48 mM) was 42%. The “% of protection” value ([1]; 0.85 mM) was 53%, the “% of protection” value ([1]; 1.91 mM) was 65% and the “improvement of the survival time (%)” value ([2]; 0.1 mM) was “+12%”. The “improvement of the survival time (%)” value ([2]; 0.48 mM) was “+15%”, the “improvement of the survival time (%)” value ([2]; 0.85 mM) was “+28%” and the “produced IL-6 rate” value ([3]; 0.1 mM) was 290 pg/mL. For the same compound, the “produced IL-6 rate” value ([3]; 0.48 mM) was 210 pg/mL, the “produced IL-6 rate” value ([3]; 0.85 mM) was 85 pg/mL and the “produced IL-1β rate” value [4, 5] was 42 pg/mL. The “produced IL-1β rate” value [4, 6] was 55 pg/mL and the “produced IL-1β rate” value ([4]; 0.48 mM on PC 12, five days-incubation) was 85 pg/mL.
With `N[C@@H](Cc1c[nH]c2ccccc12)C(=O)NCCc1c[nH]c2ccccc12` [Trp-Tryp, L-tryptophantryptamine] the “% of protection” value ([1]; 0.05 mM) was 22%, the “% of protection” value ([1]; 0.1 mM) was 35% and the “% of protection” value ([1]; 0.45 mM) was 45%. For the same compound, the “% of protection” value ([1]; 0.85 mM) was 58%, the “% of protection” value ([1]; 1.80 mM) was 66% and the “improvement of the survival time (%)” value ([2]; 0.1 mM) was “+17%”. The “improvement of the survival time (%)” value ([2]; 0.45 mM) was “+20%”, the “improvement of the survival time (%)” value ([2]; 0.85 mM) was “+30%” and the “produced IL-6 rate” value ([3]; 0.1 mM) was 305 pg/mL. For the same compound, the “produced IL-6 rate” value ([3]; 0.45 mM) was 210 pg/mL, the “produced IL-6 rate” value ([3]; 0.85 mM) was 100 pg/mL and the “produced IL-1β rate” value [4, 5] was 44 pg/mL. For the same compound, the “produced IL-1β rate” value [4, 6] was 60 pg/mL and the “produced IL-1β rate” value ([4]; 0.45 mM on PC 12, five days-incubation) was 92 pg/mL.
For vitamin E [Vit. E, reference compound], the “% of protection” value ([1]; 2 mM) was 34%.
